Read-outs that look alike come from different tables or passages of the source.
Tests used:
[1] = test system: influenza A virus (A/PR/8/34 strain)
[2] = test system: influenza A virus (A/PR/8/34 strain); format: cell-based; conditions: read-out: Inhibiting Activity Cell Fusion (IC50)
[3] = test system: influenza A virus (A/PR/8/34 strain); format: cell-based; conditions: read-out: Inhibiting Activity Infection (IC50)

In the case of “Pentenyl(5-acetamido-3,5-dideoxy-D-glycero-α-D-galacto-2-nonulopyranosylic Acid)-O-β-D-galactopyranosyl-(1→4)-O-β-D-glucopyranoside [vii]”, the “Inhibiting Activity Erythrocyte Aggregation” value [1] is reported as 133.3 µM, the IC50 [2] is reported as 745 µM and the IC50 [3] is reported as 124 µM.
